From article PMC6332026, “Synthesis and Pharmacochemistry of New Pleiotropic Pyrrolyl Derivatives” (Molecules, 2015)
Marks after values point to notes of the source that are not given here.

Tests used:
[1] = Interaction with the stable free radical DPPH (reducing activity); details: for RA % (interaction with DPPH): DPPH 50 μM; for interaction with DPPH: 10 μM compound
Protocol: 2,2-Diphenyl-1-picrylhydrazyl (DPPH) is a lipophilic, free, stable radical, which absorbs at 517 nm (violet color). Upon reduction, decolorization is observed that is stoichiometric to the number of received electrons and is representative of the antioxidant ability of compounds. […] This interaction, which indicates their radical scavenging ability in an iron-free system, was measured at 100 and 1000 μM after 20 and 60 min, whereas the final concentration of DPPH was stable at 50 μΜ.
[…] The absorbance was measured at 517 nm after 20 and 60 min at room temperature.

interleukin-6 (IL-6) = target: T1, interleukin-6 (IL-6) (Mus musculus, UniProt P08505); experiment: Inhibition of interleukin-6 (immunometric double antibody sandwich EIA); type: biochemical; details: compound 10 μM; IL-6 1500 pg/mL
T1 construct: purchased Cayman Item No. 583371
T1 sequence (P08505 25-211): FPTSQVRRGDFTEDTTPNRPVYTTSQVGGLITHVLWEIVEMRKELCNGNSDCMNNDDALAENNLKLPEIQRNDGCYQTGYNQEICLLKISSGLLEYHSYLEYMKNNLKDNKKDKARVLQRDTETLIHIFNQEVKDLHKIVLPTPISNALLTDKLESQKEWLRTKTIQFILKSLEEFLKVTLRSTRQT
Protocol: The assay used for the inhibition of IL-6 is based on an immunometric double antibody method (sandwich technique). […] Both compounds gave satisfactory biological responses, both in high and in low concentrations of IL-6 (Table 8).
The method was based on an immunometric double antibody sandwich technique. Each well of the microwell plate was coated with a specific for mouse IL-6 rat monoclonal antibody. Tested compounds at 10 μΜ and standards were incubated in the wells, and after rinsing, a second monoclonal antibody was added, which was conjugated with biotin and detected the captured IL-6. The recognition of double antibody sandwiches was done with HRP-conjugated streptavidin. The concentration of IL-6 was determined by measuring the enzymatic activity of HRP using the chromogenic substrate TMB (3,3′,5,5′-tetramethylbenzidine). The absorbance of the reaction product was measured at 450 nm, and the intensity of the color was directly proportional to the amount of bound HRP-streptavidin conjugate, which was proportional to the concentration of IL-6.

[2] = tested on: carrageenan-induced rat paw edema; experiment: Inhibition of rat paw edema induced by carrageenan; type: in vivo, Fischer 344 rats; details: 0.01 mmol/kg body weight, intraperitoneally, 3.5 h; for inhibition in vivo at 10 µmol/kg: Rattus norvegicus, ip, read-out: CPE % inhibition of rat paw edema induced by carrageenan
Protocol: The pyrrolyl derivatives, as well as their precursor chalcones were tested in vivo for the inhibition of rat paw edema induced by carrageenan. […] […]. For Compounds 2i, 2iii, 2iv and 2v, we determined their ED50 values. […]. The finding supports the primary idea of this design.
Edema was induced in the right hind paw of Fischer 344 rats (150–200 g). In the study, both males and females were included, with the exemption of pregnant females. The animals, which have been bred in our laboratory, were housed under standard conditions and received a diet of commercial food pellets and water ad libitum during maintenance. One hour before the onset of the experiment, food and water were removed. The tested compounds (dose 0.01 mmol/kg body weight) were diluted in water with a few drops of Tween 80, and they were administered intraperitoneally simultaneously with the intradermal injection of 0.1 mL 2% of carrageenan in water. The animals were euthanatized 3.5 h after the carrageenan administration. The difference between the weight of injected and uninjected paws was calculated for each animal and was compared to control animals, which were treated with water. Indomethacin was used as a reference compound in 0.01 mmol/kg. The results were expressed as the percent inhibition of the edema (CPE %).

COX-2 = target: T2, COX-2 (Homo sapiens, UniProt P35354); experiment: Inhibition of cycloxygenase-2 (colorimetric TMPD assay)
T2 sequence (P35354 18-604): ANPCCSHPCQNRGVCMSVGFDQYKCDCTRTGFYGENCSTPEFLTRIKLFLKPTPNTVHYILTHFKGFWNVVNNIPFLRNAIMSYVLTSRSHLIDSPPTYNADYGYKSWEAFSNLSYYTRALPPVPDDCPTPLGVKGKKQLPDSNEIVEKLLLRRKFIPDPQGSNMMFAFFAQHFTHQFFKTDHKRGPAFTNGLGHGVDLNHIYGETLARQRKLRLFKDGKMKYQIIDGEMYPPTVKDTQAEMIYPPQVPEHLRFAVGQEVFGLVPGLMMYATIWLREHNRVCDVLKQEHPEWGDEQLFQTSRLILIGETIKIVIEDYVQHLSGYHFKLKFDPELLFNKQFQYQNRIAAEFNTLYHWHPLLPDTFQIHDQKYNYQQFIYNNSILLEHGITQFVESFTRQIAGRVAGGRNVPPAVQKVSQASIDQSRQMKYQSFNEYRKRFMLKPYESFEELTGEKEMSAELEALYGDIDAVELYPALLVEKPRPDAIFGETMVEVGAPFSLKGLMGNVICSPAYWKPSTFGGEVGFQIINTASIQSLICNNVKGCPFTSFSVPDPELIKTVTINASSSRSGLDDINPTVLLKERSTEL
Protocol: The inhibition of COX-2, as a peroxidase, was determined by a colorimetric assay with the oxidation of N,N,N′,N′-tetramethyl-p-phenylenediamine (TMPD).
COX-2 inhibitory activity was determined by using arachidonic acid (AA) as a substrate in buffer (0.1 M Tris pH 8.5) and TMPD as a co-substrate.

[3] = Lipophilicity as RM values by reverse-phase thin layer chromatography (RPTLC); type: physicochemical; details: methanol/water 75/25 v/v with ammonia drops
From the text: Since lipophilicity is a significant physicochemical property determining the absorption, distribution, metabolism and excretion properties (ADME) of drugs, we attempted to determine experimentally the lipophilicity as RM values with reverse-phase thin layer chromatography (RPTLC). Lipophilicity was also theoretically calculated as Clog P values. According to the calculated Clog P values, the most lipophilic compounds were 2iii (6.37) and 2v (6.04). However, this observation was not supported by the RM values, since Compound 2iii presented very low lipophilicity (−0.061). Furthermore, the lipophilicity of Compound 2v could not be determined experimentally under the reported conditions. Attempts to correlate Clog P and RM values failed. From our results (Table 2), it can be concluded that RM values could not be used as a successful relative measure of the overall lipophilic/hydrophilic properties of these molecules. Tentatively, this can be attributed to the different nature of the hydrophilic and lipophilic phases in the two systems. Clog P refers to n-octanol/water, whereas RM in this case refers to methanol/water. Moreover, it is likely that pyrrole derivatives form hydrogen bonds within the hydrophilic phase.
Reverse-phase thin layer chromatography (RPTLC) was used for the determination of RM values. Silica gel plates were saturated with 5% v/v liquid paraffin in petroleum ether, and the mobile phase was methanol/water (75/25 v/v) with the addition of ammonia drops. Spots were detected under UV light. RM values were determined by the corresponding Rf values (from five measurements for each compound) using the equation [43]: RM = log[(1/Rf) − 1](1)

[4] = Inhibition of heme-dependent lipid peroxidation of linoleic acid (TBA method); details: pH 7.4, 37 °C
Protocol: The anti-lipid peroxidation activity was determined through the inhibition of heme-dependent lipid peroxidation. The peroxidation of sodium linoleate is induced from a mixture of heme and hydrogen peroxide, which produces free radicals from the side chains of amino acids. The assay is performed at pH 7.4 with a phosphate buffer, and the products of peroxidation are identified with the thiobarbituric acid method (TBA). In particular, malonic dialdehyde, a final product of lipid peroxidation, reacts with TBA and forms a colored product, whose absorbance is measured at 535 nm. […] Compounds 2ii and 2vi with low Clog P values are weak inhibitors of lipid peroxidation. It seems that the increase of volume of Ar^1, measured as molar refractivity MR (Ar^1), enhances IC50 values and reduces the inhibitory activity (2i and 2iii; and 2ii, 2iv and 2vi). For derivatives 2iv and 2v, the presence of an electron-acceptor, e.g., a chloro-substituent on the phenyl ring (Ar^2), diminishes the anti-lipid peroxidation activity.
Firstly, 0.4 mL of heme (50 μΜ), 0.25 mL of sodium linoleate (400 μΜ), 0.1 mL of the solutions of the tested compounds (concentrations varying from 10–100 μΜ in DMSO) and 0.25 mL of H2O2 (500 μΜ) were incubated for 10 min in 37 °C in a phosphate buffer (KH2PO4–KOH 50 mM, pH 7.4). The peroxidation products were identified with the reaction of thiobarbituric acid, by adding successively 0.5 mL of 40% trichloroacetic acid (TCA) and 0.5 mL of 2% of thiobarbituric acid (TBA). The addition was followed by stirring and heating at 90 °C for 20 min, and then, 1 mL of acetic acid and 1 mL of chloroform were added and the absorbance measured at 535 nm. IC50 values were determined.

[5] = Superoxide radical scavenging activity (non-enzymatic, PMS/NADH, NBT method); details: 100 μM
From the text: Superoxide anion radical is an active form of oxygen, and it is the product of the one-electron reduction of […] oxygen. Herein, superoxide radicals were formed by mixing phenazine methosulfate (PMS) with NADH and air-oxygen. The production of radicals was estimated with the nitroblue-tetrazolium method (NBT). From the tested pyrroles, Compounds 2i and 2iii were equipotent (57%) scavengers. […] In contrast, the dipole moment appeared to be important. The values of the dipole, as calculated by the program Spartan v.5.1.3.
The superoxide anion radicals were produced non-enzymatically by mixing phenazine methosulfate (PMS) with NADH and air-oxygen. The production of superoxide radicals was estimated with the nitroblue-tetrazolium (NBT) method with 3 μΜ PMS, 78 μΜ NADH and 25 μΜ NBT in 19 μΜ phosphate buffer pH 7.4. The absorbance was measured at 560 nm at room temperature. The tested compounds were added in the mixture 2 min before the addition of NADH [52].

melting point [°C] | Compound | RA % (interaction with DPPH) ([1]; 100 μM compound, 20 min) [%] | RA % (interaction with DPPH) ([1]; 100 μM compound, 60 min) [%] | RA % (interaction with DPPH) ([1]; 1000 μM compound, 20 min) [%] | inhibition in vivo at 10 µmol/kg [2] [%] | further results
– | CC(Cc1ccc(O)c(O)c1)C(C)Cc1ccc(O)c(O)c1 (stereo not drawn) [NDGA, nordihydroguaiaretic acid, reference compound] | 81 | 83 | 96 | – | RA % (interaction with DPPH) ([1]; 1000 μM compound, 60 min): 96%
– | COc1ccc2c(c1)c(CC(=O)O)c(C)n2C(=O)c1ccc(Cl)cc1 [Indomethacin, reference compound] | – | – | – | 53 | inhibition at 10 µM (interleukin-6 (IL-6)): 100%
141 to 143 | O=C(C=Cc1ccc(OCc2ccc(Br)cc2)cc1)c1cccs1 [Compound 1iii, 3-{4-[(4-Bromobenzyl)oxy]phenyl}-1-(thien-2-yl)prop-2-en-1-one] | – | – | – | 86 | –
– | O=C(C=Cc1cccc2ccccc12)c1ccc(Cl)cc1 [Compound 1v, 3-(Naphth-1-yl)-1-(4-chloro)phenylprop-2-en-1-one] | – | – | – | – | CPE % inhibition of rat paw edema induced by carrageenan [2]: 44 ^d %
– | O=C(C=Cc1ccc2[nH]ccc2c1)c1ccccc1 [Compound 1vi, 3-(1H-Indol-5-yl)-1-phenylprop-2-en-1-one] | – | – | – | 42 | –
– | CN(C)c1ccc(C=CC=CC(=O)c2ccccc2)cc1 [Compound 1ii, 5-[4-(Dimethylamino)phenyl]-1-phenylpenta-2,4-dien-1-one] | 31 | 13 | 38 | 69 | RA % (interaction with DPPH) ([1]; 1000 μM compound, 60 min): 42%
219 to 220 | CN(C)c1ccc(/C=C/c2c[nH]cc2C(=O)c2ccccc2)cc1 [Compound 2ii, (E)-{4-[4-(Dimethylamino)styryl]-1H-pyrrol-3-yl}(phenyl)methanone] | 86 | 88 | 99 | 89 | inhibition at 100 µM (COX-2; read-out: COX-2 % inhibition): 47%; interaction with DPPH ([1]; 20 min): 35%; interaction with DPPH ([1]; 60 min): 40%; RA % (interaction with DPPH) ([1]; 1000 μM compound, 60 min): 96%; RM [3]: 0.073; LP IC50 (inhibition of heme-dependent lipid peroxidation of linoleic acid) [4]: inactive
– | O=C(O)/C=C/c1ccc(O)c(O)c1 [Caffeic acid, reference compound] | – | – | – | – | O2^•− % superoxide radical scavenging activity [5]: 86.1%; IC50 ([4]; read-out: LP IC50 (inhibition of heme-dependent lipid peroxidation of linoleic acid)): 6 µM
247 to 248 | O=C(c1ccccc1)c1c[nH]cc1-c1ccc2[nH]ccc2c1 [Compound 2vi, [4-(1H-Indol-5-yl)-1H-pyrrol-3-yl](phenyl)methanone] | – | – | – | – | COX-2 % inhibition (COX-2; 100 μM): inactive; RM [3]: −0.685; O2^•− % superoxide radical scavenging activity [5]: 86%; LP IC50 (inhibition of heme-dependent lipid peroxidation of linoleic acid) [4]: inactive
48 to 50 | O=C(C=Cc1cccc(Oc2ccccc2)c1)c1cccs1 [Compound 1i, 3-(3-Phenoxyphenyl)-1-(thien-2-yl)prop-2-en-1-one] | 43 | 2 | 5 | 41 | –
– | O=C(C=Cc1cccc2ccccc12)c1ccccc1 [Compound 1iv, 3-(Naphth-1-yl)-1-phenylprop-2-en-1-one] | – | – | – | 40 | –
